# Measurements taken from paper PMC6294118 (Pharmaceutical research, 2018).
# What was measured:
# hOCT2 = biological target: T1, hOCT2 (Homo sapiens, UniProt O15244); assay: Inhibition of hOCT2-mediated morphine uptake in HEK293-hOCT2 cells; format: cell-based; conditions: for Cmax,unbound/IC50 (hOCT2): ratio of literature Cmax,unbound to hOCT2 IC50
# T1 sequence (O15244 1-555): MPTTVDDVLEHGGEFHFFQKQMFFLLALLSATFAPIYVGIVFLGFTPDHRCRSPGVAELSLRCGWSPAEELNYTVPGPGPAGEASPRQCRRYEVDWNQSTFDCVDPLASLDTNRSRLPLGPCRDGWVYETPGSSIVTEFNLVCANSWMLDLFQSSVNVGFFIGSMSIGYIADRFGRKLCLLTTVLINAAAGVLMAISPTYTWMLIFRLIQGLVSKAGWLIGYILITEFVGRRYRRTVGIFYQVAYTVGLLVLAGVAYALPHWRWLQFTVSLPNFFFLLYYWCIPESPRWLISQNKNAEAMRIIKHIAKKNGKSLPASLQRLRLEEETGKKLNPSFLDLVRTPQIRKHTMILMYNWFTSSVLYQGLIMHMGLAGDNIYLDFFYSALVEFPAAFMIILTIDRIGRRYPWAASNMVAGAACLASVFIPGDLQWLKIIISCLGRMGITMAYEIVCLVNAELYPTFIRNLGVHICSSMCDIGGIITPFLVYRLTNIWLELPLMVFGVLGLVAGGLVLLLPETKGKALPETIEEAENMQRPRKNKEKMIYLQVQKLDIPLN
# hOCT1 [1] = biological target: T2, hOCT1 (Homo sapiens, UniProt O15245); conditions: for Cmax,unbound/IC50 (hOCT1): ratio of literature Cmax,unbound to hOCT1 IC50; for Cmax,unbound/IC50 (hOCT1, second ratio column): ratio to hOCT1 IC50, the values fit Cmax port,unbound/IC50
# T2 sequence (O15245 1-554): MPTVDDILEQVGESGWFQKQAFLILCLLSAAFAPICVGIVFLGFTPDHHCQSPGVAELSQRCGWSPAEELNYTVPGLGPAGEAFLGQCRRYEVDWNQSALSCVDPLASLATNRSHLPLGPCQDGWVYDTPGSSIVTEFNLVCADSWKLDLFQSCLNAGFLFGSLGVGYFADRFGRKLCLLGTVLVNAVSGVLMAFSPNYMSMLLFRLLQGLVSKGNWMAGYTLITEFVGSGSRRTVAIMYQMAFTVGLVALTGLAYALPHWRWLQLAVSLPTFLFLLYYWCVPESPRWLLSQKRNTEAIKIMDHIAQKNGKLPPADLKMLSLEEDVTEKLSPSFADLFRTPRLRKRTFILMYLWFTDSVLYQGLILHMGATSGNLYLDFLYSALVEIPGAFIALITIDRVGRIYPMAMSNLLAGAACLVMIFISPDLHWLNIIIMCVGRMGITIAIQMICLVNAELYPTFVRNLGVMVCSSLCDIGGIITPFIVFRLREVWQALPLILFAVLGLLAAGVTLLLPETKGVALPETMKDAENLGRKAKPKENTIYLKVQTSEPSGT
# hOCT1 [2] = biological target: T2, hOCT1; assay: cell-based
# [3] = cited from earlier work; for Cmax port,unbound (maximal unbound plasma concentration in the portal vein): in vivo
SMILES,IC50 (hOCT2) [nM],"Cmax,unbound/IC50 (hOCT2) (hOCT2)","Cmax,unbound/IC50 (hOCT1) (hOCT1 [1])","Cmax,unbound/IC50 (hOCT1, second ratio column) (hOCT1 [1])",IC50 (hOCT1 [2]) [nM],"Cmax port,unbound (maximal unbound plasma concentration in the portal vein) [3] [nM]",Fraction of dose excreted as unchanged morphine in urine [3]
"CN(C)CCC=C1c2ccccc2CCc2ccccc21 [Amitriptyline, amitriptyline]",410 ± 50,0.02,0.005,2.28,1890 ± 770,4300,
"CNCCC(Oc1ccc(C(F)(F)F)cc1)c1ccccc1 (stereo not drawn) [Fluoxetine, fluoxetine]",3320 ± 760,0.003,0.001,0.08,9060 ± 3240,700,
"CN(C)CCCN1c2ccccc2CCc2ccccc21 [Imipramine, imipramine]",,,,,4030 ± 1620,4500,
"CCc1c2c(nc3ccc(OC(=O)N4CCC(N5CCCCC5)CC4)cc13)-c1cc3c(c(=O)n1C2)COC(=O)[C@]3(O)CC [Irinotecan, irinotecan]",,,,,1360 ± 430,,
"Cc1nccn1CC1CCc2c(c3ccccc3n2C)C1=O (stereo not drawn) [Ondansetron, ondansetron]",,,,,270 ± 100,80,
CN1CC[C@]23c4c5ccc(O)c4O[C@H]2[C@@H](O)C=C[C@H]3[C@H]1C5 [morphine],,,,,,,approximately 10%
